Like-named read-outs stand apart in the source and are kept apart here.
Test system: peripheral blood mononuclear cells (PBMC) stimulated with allogeneic PBMC or EBV-transformed human B cells (RPMI1788)
Experiment: Mixed lymphocyte reaction (MLR) assay
Assay type: cell-based
Conditions: Homo sapiens, RPMI-1788
In short: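 Compounds, held as 10 mM DMSO stocks and diluted in culture medium, were added to PBMC stimulated by 30 Gy-irradiated allogeneic PBMC or RPMI1788 cells. Proliferation was read as [3H]-thymidine uptake (1 μCi, final 16 h) after 5 days at 37° C. Inhibition was derived from cpm.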

[1] = MLR assay of example 319, read-out: MLR IC50
[2] = 50% suppression of the MLR, [3H]-thymidine incorporation, read-out: MLR

| SMILES | IC50 [1] [nM] | IC50 [2] [nM] |
| --- | --- | --- |
| Cc1cccc(C)c1-c1ccc2nc(N)nc(N3CCN(C(=O)COc4ccc(Cl)cc4)CC3)c2n1 [Example 433, 2-amino-4-[4-(4-chlorophenoxyacetyl)piperazin-1-yl]-6-(2,6-dimethylphenyl)-pyrido-[3,2-d]pyrimidine] | 3600 | – |
| CC(C)(C)OC(=O)N1CCC(Nc2nc(N)nc3ccc(-c4ccc(F)cc4)nc23)CC1 [Example 461, 2-amino-4-[1-(tert-butoxycarbonyl)piperid-4-ylamino]-6-(4-fluorophenyl)-pyrido[3,2-d]pyrimidine] | 4000 | – |
| Cc1ccc(-c2ccc3nc(N)nc(N4CCN(C(=O)COc5ccc(Cl)cc5)CC4)c3n2)cc1C [Example 516, 2-amino-4-[N-(4-chlorophenoxyacetyl)-piperazin-1-yl]-6-(3,4-dimethyl-phenyl)-pyrido(3,2-d)pyrimidine] | 56 | – |
| Nc1nc(N2CCN(C(=O)COc3ccc(Cl)cc3)CC2)c2nc(-c3cc(F)ccc3F)ccc2n1 [Example 440, 2-amino-4-[4-(4-chlorophenoxyacetyl)piperazin-1-yl]-6-(2,5-difluorophenyl)pyrido-[3,2-d]pyrimidine] | 70 | – |
| Cc1cccc(NC(=O)N2CCN(c3nc(CNC4CC4)nc4ccc(-c5ccc(F)cc5)nc34)CC2)c1 [Example 539, 2-(N-cyclopropylamino)methyl-4-[N-(3-methylphenylcarbamoyl)piperazin-1-yl]-6-(4-fluorophenyl)-pyrido[3,2-d]pyrimidine] | 700 | – |
| COCC(=O)N1CCN(c2nc(N)nc3ccc(-c4ccc(F)cc4)nc23)CC1 [Example 462, 2-amino-4-[4-(methoxyacetyl)piperazin-1-yl]-6-(4-fluorophenyl)-pyrido[3,2-d]pyrimidine] | 400 | – |
| Cc1cccc(NC(=O)N2CCN(c3nc(C)nc4ccc(-c5ccc(F)cc5)nc34)CC2)c1 [Example 531, 2-methyl-4-[N-(3-methylphenylcarbamoyl)piperazin-1-yl]-6-(4-fluorophenyl)-pyrido[3,2-d]pyrimidine] | 84 | – |
| COc1ccc(-c2ccc3nc(N)nc(N4CCC(O)(c5ccc(Cl)cc5)CC4)c3n2)cc1OC [Example 269, 2-amino-4-(4-chlorophenyl-4-hydroxypiperidin-1-yl)-6-(3,4-dimethoxyphenyl)-pyrido[3,2-d]pyrimidine] | – | 3100 |
| Nc1nc(N2CCN(C(=O)NC3CCCC3)CC2)c2nc(-c3ccc(F)cc3)ccc2n1 [Example 454, 2-amino-4-[4-(N-cyclopentylcarbamoyl)-piperazin-1-yl]-6-(4-fluorophenyl)-pyrido[3,2-d]pyrimidine] | 400 | – |
| CC(C)(C)OC(=O)N1CCCC(Nc2nc(N)nc3ccc(-c4ccc(F)cc4)nc23)C1 (centres unmarked) [Example 457, 2-amino-4-[1-(tert-butoxycarbonyl)piperid-3-ylamino]-6-(4-fluorophenyl)-pyrido[3,2-d]pyrimidine] | 6600 | – |
| Nc1nc(N2CCN(C(=O)CNC(=O)c3ccc(Cl)cc3)CC2)c2nc(-c3ccc(F)cc3)ccc2n1 [Example 476, N-(2-{4-[2-amino-6-(4-fluorophenyl)-pyrido[3,2-d]pyrimidin-4-yl]-piperazin-1-yl}-2-oxoethyl)-4-chlorobenzamide] | 60 | – |
| Cc1cccc(NC(=O)N2CCN(c3ncnc4ccc(-c5cccs5)nc34)CC2)c1 [Example 562, 4-[(3-methylphenylcarbamoyl)-piperazin-1-yl]-6-(2-thienyl)pyrido[3,2-d]pyrimidine] | 53 | – |
| Cc1cccc(NC(=O)N2CCN(c3ncnc4ccc(-c5ccc(C#N)cc5)nc34)CC2)c1 [Example 553, 4-[(3-methylphenylcarbamoyl)-piperazin-1-yl]-6-(4-cyanophenyl) Pyrido[3,2-d]pyrimidine] | 60 | – |
| Cc1ccc(-c2ccc3nc(N)nc(N4CCN(C(=O)COc5ccc(Cl)cc5)CC4)c3n2)cc1 [Example 445, 2-amino-4-[4-(4-chlorophenoxyacetyl)piperazin-1-yl]-6-(4-methylphenyl)pyrido-[3,2-d]pyrimidine] | 29 | – |
| Nc1nc(N2CCN(C(=O)COc3ccc(Cl)cc3)CC2)c2nc(-c3ccccc3)ccc2n1 [Example 421, 2-amino-4-[4-(4-chlorophenoxyacetyl)piperazin-1-yl]-6-phenylpyrido-[3,2-d]pyrimidine] | 49 | – |
| Nc1nc(N2CCN(C(=O)Nc3ccc(Cl)cc3)CC2)c2nc(-c3ccc(F)cc3)ccc2n1 [Example 455, 2-amino-4-[4-[N-(4-chlorophenyl)carbamoyl]-piperazin-1-yl]-6-(4-fluorophenyl)-pyrido[3,2-d]pyrimidine] | 70 | – |
| Nc1nc(N2CCN(C(=O)N3CCOCC3)CC2)c2nc(-c3ccc(F)cc3)ccc2n1 [Example 466, 2-amino-4-[4-(morpholinocarbonyl)piperazin-1-yl]-6-(4-fluorophenyl)-pyrido[3,2-d]pyrimidine] | 2500 | – |
| Nc1nc(N2CCN(C(=O)COc3ccc(Cl)cc3Cl)CC2)c2nc(-c3ccc(F)cc3)ccc2n1 [Example 386, 2-amino-4-[4-(2,4-dichlorophenoxyacetyl)piperazin-1-yl]-6-(4-fluorophenyl)-pyrido[3,2-d]pyrimidine] | 400 | – |

| SMILES | IC50 [1] [nM] | IC50 [2] [nM] |
| --- | --- | --- |
| Nc1nc(N2CCN(C(=O)COc3ccc(Cl)cc3)CC2)c2nc(-c3cccc(Cl)c3Cl)ccc2n1 [Example 425, 2-amino-4-[4-(4-chlorophenoxyacetyl)piperazin-1-yl]-6-(2,3-dichlorophenyl)-pyrido-[3,2-d]pyrimidine] | 300 | – |
| CC(=O)Nc1ccc(-c2ccc3nc(N)nc(N4CCN(C(=O)COc5ccc(Cl)cc5)CC4)c3n2)cc1 [Example 449, 2-amino-4-[4-(4-chlorophenoxyacetyl)piperazin-1-yl]-6-[4-(acetamido)phenyl]-pyrido-[3,2-d]pyrimidine] | 39 | – |
| Nc1nc(N2CCOCC2)c2nc(-c3ccc(Cl)c(Cl)c3)ccc2n1 [184/231, 2-amino-4-(morpholino)-6-(3,4-dichlorophenyl)-pyrido[3,2-d]pyrimidine] | – | 3900 |
| CCOc1ccc(-c2ccc3ncnc(N4CCN(C(=O)Nc5cccc(C)c5)CC4)c3n2)cc1Cl [Example 560, 4-[(3-methylphenylcarbamoyl)-piperazin-1-yl]-6-(3-chloro-4-ethoxyphenyl)pyrido[3,2-d]pyrimidine] | 380 | – |
| Nc1nc(N2CCN(C(=O)COc3ccc(Cl)cc3)CC2)c2nc(-c3ccncc3)ccc2n1 [Example 407, 2-amino-4-[4-(4-chlorophenoxyacetyl)piperazin-1-yl]-6-(pyridin-4-yl)pyrido-[3,2-d]pyrimidine] | 5 | – |
| Nc1nc(N2C[C@@H]3C[C@H]2CN3C(=O)COc2ccc(Cl)cc2)c2nc(-c3ccc(F)cc3)ccc2n1 [Example 484, (S,S)-1-{5-[2-amino-6-(4-fluorophenyl)-pyrido[3,2-d]pyrimidin-4-yl]-2,5-diaza-bicyclo[2.2.1]hept-2-yl}-2-(4-chlorophenoxy)-ethanone] | 2600 | – |
| Cc1cccc(NC(=O)N2CCN(c3nc(N)nc4ccc(-c5ccccc5Cl)nc34)CC2)c1 [Example 549, 2-amino-4-[(3-methylphenylcarbamoyl)-piperazin-1-yl]-6-(2-chlorophenyl)-pyrido[3,2-d]pyrimidine] | 80 | – |
| Cc1cccc(NC(=O)N2CCN(c3nc(CN(C)C)nc4ccc(-c5ccc(F)cc5)nc34)CC2)c1 [Example 537, 2-(N,N-dimethylamino)methyl-4-[N-(3-methylphenylcarbamoyl)piperazin-1-yl]-6-(4-fluorophenyl)-pyrido[3,2-d]pyrimidine] | 3300 | – |
| CN(C)C(=O)N1CCN(c2nc(N)nc3ccc(-c4ccc(F)cc4)nc23)CC1 [Example 464, 2-amino-4-[4-(dimethylcarbamoyl)piperazin-1-yl]-6-(4-fluorophenyl)-pyrido[3,2-d]pyrimidine] | 800 | – |
| Nc1nc(N2CCN(CC(=O)NCCc3ccccc3)CC2)c2nc(-c3ccc(F)cc3)ccc2n1 [Example 459, 2-amino-4-[4-[2-(phenyl)ethylcarbamylmethyl]-piperazin-1-yl]-6-(4-fluorophenyl)-pyrido[3,2-f]pyrimidine] | 500 | – |
| CC(=O)c1ccc(-c2ccc3nc(N)nc(N4CCN(C(=O)COc5ccc(Cl)cc5)CC4)c3n2)cc1 [Example 446, 2-amino-4-[4-(4-chlorophenoxyacetyl)piperazin-1-yl]-6-(4-acetylphenyl)pyrido-[3,2-d]pyrimidine] | 11 | – |
| CS(=O)(=O)c1ccc(-c2ccc3nc(N)nc(N4CCN(C(=O)COc5ccc(Cl)cc5)CC4)c3n2)cc1 [Example 417, 2-amino-4-[4-(4-chlorophenoxyacetyl)piperazin-1-yl]-6-(4-(methanesulfonyl)-phenyl)pyrido-[3,2-d]pyrimidine] | 28 | – |
| C[C@@H]1CN(C(=O)c2ccccc2)CCN1c1nc(N)nc2ccc(-c3ccc(F)cc3)nc12 [Example 487, (R)-2-amino-4-(4-benzoyl-2-methylpiperazin-1-yl)-6-(4-fluorophenyl)-pyrido[3,2-d]pyrimidine] | 7500 | – |
| Cc1cccc(NC(=O)N2CCN(c3nc(N)nc4ccc(-c5c(C)cccc5C)nc34)CC2)c1 [Example 550, 2-amino-4-[(3-methylphenylcarbamoyl)-piperazin-1-yl]-6-(2,6-dimethyl-phenyl)-pyrido[3,2-d]pyrimidine] | 3500 | – |
| Cc1cccc(NC(=O)N2CCN(c3ncnc4ccc(-c5cccc(C#N)c5)nc34)CC2)c1 [Example 554, 4-[(3-methylphenylcarbamoyl)-piperazin-1-yl]-6-(3-cyanophenyl)pyrido[3,2-d]pyrimidine] | 37 | – |
| CC(C)N(C(=O)N1CCN(c2nc(N)nc3ccc(-c4ccc(F)cc4)nc23)CC1)C(C)C [Example 465, 2-amino-4-[4-(diisopropylcarbamoyl)piperazin-1-yl]-6-(4-fluorophenyl)-pyrido[3,2-d]pyrimidine] | 3000 | – |
| Nc1nc(N2CCN(C(=O)c3ccco3)CC2)c2nc(-c3ccc4c(c3)OCO4)ccc2n1 [Example 192, 2-amino-4-[N-(2-furoyl)-piperazin-1-yl]-6-(3,4-methylenedioxyphenyl)-pyrido[3,2-d]pyrimidine] | – | 8100 |

Reference: patent US20090264415A2 (priority 2004, published 2009)
